The values below come from patent publication US20250059220A1, “SUBSTITUTED BENZOTHIOPHENE DERIVATIVES AND METHODS OF USE THEREOF” (Merck Sharp & Dohme LLC, priority 2021, published 2025).

One test concerns the target human PTPN2 (1-387) (Homo sapiens (Human), UniProt P17706). Description: Human PTPN2 Biochemical Assay. As to conditions: DiFMUP substrate. The procedure, abridged:
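Human PTPN2 (1-387) preincubated 30 min at RT with compound (10-point 3-fold series) in Tris pH 7.4 buffer with 0.5 mM DTT, then DiFMUP substrate added for 1 h at RT. Fluorescence at ex 360/em 460 nm, normalised to no-enzyme and enzyme controls; EC50 from 4-parameter fit.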

A further test deals with human PTPN1 (1-435) (Homo sapiens (Human), UniProt P18031). Description: Human PTPN1 Biochemical Assay. The following applies: DiFMUP substrate, read-out: PTP1B IC50. The procedure, abridged: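 Read-out is DiFMUP hydrolysis fluorescence (360 nm excitation, 460 nm emission) after 1 h at room temperature, following 30 min enzyme–compound preincubation.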
Sequence of human PTPN1 (1-435) (P18031 whole entry): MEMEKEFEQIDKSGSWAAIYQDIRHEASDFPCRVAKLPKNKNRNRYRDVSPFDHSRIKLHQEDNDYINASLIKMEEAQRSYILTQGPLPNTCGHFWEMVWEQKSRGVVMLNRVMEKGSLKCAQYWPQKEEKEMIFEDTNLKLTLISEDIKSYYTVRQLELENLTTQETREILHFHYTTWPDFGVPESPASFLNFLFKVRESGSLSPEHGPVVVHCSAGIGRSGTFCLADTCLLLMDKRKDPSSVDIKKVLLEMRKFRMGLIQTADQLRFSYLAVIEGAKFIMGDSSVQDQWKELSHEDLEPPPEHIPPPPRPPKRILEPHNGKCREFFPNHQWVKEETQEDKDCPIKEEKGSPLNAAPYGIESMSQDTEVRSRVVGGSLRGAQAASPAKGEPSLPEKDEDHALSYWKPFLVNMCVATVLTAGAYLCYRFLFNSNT

Sequence of human PTPN2 (1-387) (P17706 other isoform, or with tags, fused parts or gaps): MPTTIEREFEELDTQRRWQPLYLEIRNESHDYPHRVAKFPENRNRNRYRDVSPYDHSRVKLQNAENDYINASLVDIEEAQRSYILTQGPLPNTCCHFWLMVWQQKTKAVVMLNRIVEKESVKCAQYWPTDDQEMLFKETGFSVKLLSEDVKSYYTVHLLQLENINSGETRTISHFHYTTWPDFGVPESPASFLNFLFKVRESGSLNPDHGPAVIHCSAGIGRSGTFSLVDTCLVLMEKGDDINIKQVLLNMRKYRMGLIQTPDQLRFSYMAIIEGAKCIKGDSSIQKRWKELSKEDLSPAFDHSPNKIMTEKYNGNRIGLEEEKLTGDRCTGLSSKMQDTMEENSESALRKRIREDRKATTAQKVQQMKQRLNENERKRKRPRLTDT

As a reminder, the IC50 is the concentration that inhibits the measured activity by half. On to `Cn1cc(CCNC(=O)c2ccc3sc(C(F)(F)P(=O)(O)O)c(Br)c3c2)c2ccccc21` [Compound 155], for which the concentration for half-maximal inhibition (IC50) at human PTPN2 (1-387) stood at 2160 nM; on human PTPN1 (1-435), 2380 nM.

`O=C(NCCn1ccc2ccccc21)c1ccc2sc(C(F)(F)P(=O)(O)O)c(Br)c2c1` [Compound 156]: the 50% inhibitory concentration (IC50) on human PTPN2 (1-387) was 902 nM; at human PTPN1 (1-435) it was 1790 nM.

Turning to `O=C(NCCSC(F)(F)F)c1ccc2sc(C(F)(F)P(=O)(O)O)c(Br)c2c1` [Compound 157], the figures for the IC50 against human PTPN2 (1-387) and on human PTPN1 (1-435) were 5250 nM and 2380 nM, respectively.

With `O=C(NC(c1cccnc1)C(F)(F)F)c1ccc2sc(C(F)(F)P(=O)(O)O)c(Br)c2c1` (centres unmarked) [Compound 158], the IC50 on human PTPN2 (1-387) amounted to 456 nM; at human PTPN1 (1-435), 1450 nM.

Turning to `O=C(NCc1c[nH]nn1)c1cc(Cl)c2sc(C(F)(F)P(=O)(O)O)c(Br)c2c1` [Compound 159], the figures for the IC50 at human PTPN2 (1-387) and on human PTPN1 (1-435) were 470 nM and 251 nM, respectively.

On to `O=C(NCc1cccnn1)c1cc(Cl)c2sc(C(F)(F)P(=O)(O)O)c(Br)c2c1` [Compound 160], for which the IC50 against human PTPN2 (1-387) came out at 546 nM; at human PTPN1 (1-435), 315 nM.

Regarding `N#Cc1cc(C(=O)NCc2cccnn2)cc2c(Br)c(C(F)(F)P(=O)(O)O)sc12` [Compound 161], the values for the IC50 at human PTPN2 (1-387) and at human PTPN1 (1-435) were 344 nM and 446 nM, respectively.

Turning to `N#Cc1cc(C(=O)NCc2c[nH]nn2)cc2c(Br)c(C(F)(F)P(=O)(O)O)sc12` [Compound 162], the half-inhibitory concentration (IC50) amounted to 222 nM against human PTPN2 (1-387) and 244 nM at human PTPN1 (1-435).

Regarding `COc1cc(C(=O)NCc2cccnn2)cc2c(Br)c(C(F)(F)P(=O)(O)O)sc12` [Compound 163], the half-maximal inhibitory concentration (IC50) is 301 nM on human PTPN2 (1-387) and 436 nM on human PTPN1 (1-435).

As to `O=C(NCc1cccnn1)c1cc(F)c2sc(C(F)(F)P(=O)(O)O)c(Br)c2c1` [Compound 164], the half-inhibitory concentration (IC50) against human PTPN2 (1-387) is 435 nM; on human PTPN1 (1-435), 361 nM.

As for `O=C(NCc1c[nH]nn1)c1cc(F)c2sc(C(F)(F)P(=O)(O)O)c(Br)c2c1` [Compound 165], the IC50 on human PTPN2 (1-387) was 390 nM; on human PTPN1 (1-435), 675 nM.

Regarding `O=C(NCc1cccnn1)c1cc(O)c2sc(C(F)(F)P(=O)(O)O)c(Br)c2c1` [Compound 166], the IC50 against human PTPN2 (1-387) worked out at 3600 nM; at human PTPN1 (1-435) it was 3160 nM.

With `O=C(NCc1c[nH]nn1)c1cc(O)c2sc(C(F)(F)P(=O)(O)O)c(Br)c2c1` [Compound 167], the 50% inhibitory concentration (IC50) on human PTPN2 (1-387) came to 3070 nM; on human PTPN1 (1-435), 3560 nM.

`NC(=O)c1cc(OCCCC(F)(F)F)c2sc(C(F)(F)P(=O)(O)O)c(Br)c2c1` [Compound 168]: the figures for the 50% inhibitory concentration (IC50) on human PTPN2 (1-387) and on human PTPN1 (1-435) were 29.7 nM and 28.2 nM, respectively.

As to `CC(C)(O)CCOc1cc(C(N)=O)cc2c(Br)c(C(F)(F)P(=O)(O)O)sc12` [Compound 170], the results for the IC50 against human PTPN2 (1-387) and on human PTPN1 (1-435) were 636 nM and 518 nM, respectively.

For the compound `N#Cc1c(C(F)(F)P(=O)(O)O)sc2ccc(C(=O)NCc3ncn[nH]3)cc12` [Compound 171], the 50% inhibitory concentration (IC50) against human PTPN2 (1-387) turned out to be 1470 nM; on human PTPN1 (1-435), 2180 nM.

Consider `N#Cc1c(C(F)(F)P(=O)(O)O)sc2ccc(C(=O)NCc3cccnn3)cc12` [Compound 172], for which the IC50 on human PTPN2 (1-387) worked out at 581 nM; at human PTPN1 (1-435), 663 nM.

On to `N#Cc1c(C(F)(F)P(=O)(O)O)sc2ccc(C(=O)NCc3c[nH]nn3)cc12` [Compound 173], for which the half-inhibitory concentration (IC50) on human PTPN2 (1-387) worked out at 578 nM; on human PTPN1 (1-435) it was 738 nM.

As to `O=C(NCc1ncc[nH]1)c1ccc2sc(C(F)(F)P(=O)(O)O)c(Br)c2c1` [Compound 174], the 50% inhibitory concentration (IC50) against human PTPN2 (1-387) came out at 4140 nM; on human PTPN1 (1-435), 8610 nM.

With `CC(NC(=O)c1ccc2sc(C(F)(F)P(=O)(O)O)c(Br)c2c1)c1nncn1C` (centres unmarked) [Compound 175], the concentration for half-maximal inhibition (IC50) against human PTPN2 (1-387) came out at 2020 nM; on human PTPN1 (1-435), 1420 nM.

As for `C[C@@H](NC(=O)c1ccc2sc(C(F)(F)P(=O)(O)O)c(Br)c2c1)c1ccnn1C` [Compound 176], the figures for the IC50 at human PTPN2 (1-387) and at human PTPN1 (1-435) were 4720 nM and 2680 nM, respectively.

In the case of `CCC(NC(=O)c1ccc2sc(C(F)(F)P(=O)(O)O)c(Br)c2c1)c1cccnc1` (centres unmarked) [Compound 177], the 50% inhibitory concentration (IC50) at human PTPN2 (1-387) came out at 2070 nM; at human PTPN1 (1-435), 839 nM.
